The results in this text go back to patent publication US11505533B2, “Metabolically stable N-acylaminooxadiazoles useful as antibacterial agents” (MICROBIOTIX, INC., priority 2017, dated 2022).

The structures appear in SMILES notation. Values after ≈ are worked out from the molar mass of the structure shown. A value given as a limit tells only on which side of the number the result lay.

The subject of one series is MRSA-1094 (MDR). In kind it is cell-based. As to conditions: Staphylococcus aureus; MRSA-1094 (MDR); read-out: MIC.
Series [1] deals with S. aureus ATCC 25923 (MSSA. osteomyelitis isolate). In kind it is cell-based. As to conditions: Staphylococcus aureus; S. aureus ATCC 25923 (MSSA); read-out: MIC.
The subject of a further series is MRSA USA 300 (BAA-1717). In kind it is cell-based. As to conditions: Staphylococcus aureus; MRSA USA 300 (BAA-1717); read-out: MIC.
Series [2] can be described thus: Aqueous solubility, nephelometry. As to conditions: water, kinetic from dmso stock.
The subject of series [3] is E. coli (700, TolC+) efflux pos. The format is cell-based. To be noted: Escherichia coli; E. coli (700, TolC+) efflux pos; read-out: MIC.
Series [4] can be described thus: Mammalian cell cytotoxicity.
The subject of series [5] is E. coli TolC(−). In words: TolC(−) MIC (NB). In kind it is cell-based. As to conditions: Escherichia coli, read-out: TolC(−) MIC (μM)(NB).
For series [6], the system named is E. coli TolC(−). To be noted: MIC in the presence of 10% fetal calf serum versus without.
A further series in a line: Mouse serum stability. As to conditions: 5 μM, 37° C., 4 h.
The nature of series [7]: Microsomal stability + NADPH. As to conditions: mouse liver microsomes, 0.5 hr at 37° C. For orientation: Microsomes from liver hold many membrane-bound enzymes, among them those of drug oxidation.
The nature of series [8]: Mouse serum binding, equilibrium dialysis. On the technique in general: Equilibrium dialysis compares concentrations on both sides of a semipermeable membrane.
The nature of a further series: Caco-2 permeability. The format is in vitro ADME. As to conditions: human, direction not given. The source says: Res., 15(5): 726-733 (1998).
In a further series the test system is N. gonorrhoeae 49226. The format is cell-based. To be noted: Neisseria gonorrhoeae; N. gonorrhoeae 49226; read-out: MIC.

On to `CC(C)(C)OC(=O)N1CC(Oc2ccc(C(=O)Nc3nnc(-c4ccc(F)cc4)o3)cc2)C1` [compound 4288], for which the MIC (usually the least concentration at which growth counts as inhibited) in the series on MRSA-1094 (MDR) is 5.68 µg/mL (≈ 12.5 µM); in series [1], 7.16 µg/mL (≈ 15.8 µM); with MRSA USA 300 (BAA-1717) it was 2.01 µg/mL (≈ 4.42 µM); in series [3], greater than 45 µg/mL; in the series with E. coli TolC(−) [5] it was 3.51 µM (≈ 1.59 µg/mL). In addition, the concentration in solution in series [2] (solubility) came to 25 µM (≈ 11.4 µg/mL). Besides, the CC50 (usually the concentration giving 50% cytotoxicity) in series [4] was found to be 6.6 µM.
For `O=C(Nc1nnc(-c2ccc(F)cc2)o1)N1CCC2(CCC2)CC1` [compound 4842], the “Fold Serum Shift vs. TolC(−)” value with E. coli TolC(−) [6] turned out to be 4 fold. The “Serum Stability (% remain)” value in “Mouse serum stability” was determined as 77%. The MIC in the series on E. coli TolC(−) [5] was 6.25 µM (≈ 2.06 µg/mL).
For the molecule `Cc1cc(C)cc(Oc2ccc(C(=O)Nc3nnc(-c4ccc(F)cc4)o3)cc2)c1` [compound 4308], in series [2], the concentration in solution (solubility) came to 3.13 µM (≈ 1.26 µg/mL). For the same molecule, the midpoint of cytotoxicity in [4], the CC50, lay at 32 µM. The “Microsomal Stability + NADPH % degraded” value in series [7] is recorded as less than 30%. Further, the MIC in the series with E. coli TolC(−) [5] turned out to be 1.56 µM (≈ 0.63 µg/mL).
Consider `O=C(Nc1nnc(-c2ccc(F)cc2)o1)N1CCC(Cl)=C(Cl)C1` [compound 4737], for which the solubility – broadly, how much of the substance goes into solution per volume – in [2] stood at 6.3 µM (≈ 2.25 µg/mL). Moreover, the free fraction (fraction unbound) (usually free concentration divided by total concentration) in [8] is less than 0.01. The molecule also yielded a CC50 in series [4] greater than 100 µM. The “Fold Serum Shift vs. TolC(−)” value in the series on E. coli TolC(−) [6] stood at 32 fold. Besides, the “Serum Stability (% remain)” value in “Mouse serum stability” was greater than 95%. Besides, in [7], the “Microsomal Stability + NADPH % degraded” value is on record as 21%. For the same molecule, the MIC with E. coli TolC(−) [5] turned out to be 0.78 µM (≈ 0.279 µg/mL).
In the case of `CC1=CCN(C(=O)Nc2nnc(-c3ccc(F)cc3)o2)CC1` [compound 4366], in series [2], the solubility was 25 µM (≈ 7.56 µg/mL). Further, the Papp (in general, the rate of passage across a membrane or cell layer, normalised by area and donor concentration) in the series “Caco-2 permeability” came to 67.3 ×10⁻⁶ cm/s. Moreover, the fraction unbound in series [8] is 0.051. The same molecule returned a CC50 in series [4] of 46 µM. Also, the “Fold Serum Shift vs. TolC(−)” value in the series on E. coli TolC(−) [6] is recorded as 4 fold. Also, in the series “Mouse serum stability”, the “Serum Stability (% remain)” value worked out at 95%. Moreover, the “Microsomal Stability + NADPH % degraded” value in [7] worked out at 45%. Further, the MIC in the series on E. coli TolC(−) [5] stood at 6.25 µM (≈ 1.89 µg/mL).
On to `CCN(c1ccccc1)c1ccc(C(=O)Nc2nnc(-c3ccc(F)cc3)o2)cc1` [compound 4285], for which the MIC in the series on MRSA-1094 (MDR) is 2.52 µg/mL (≈ 6.26 µM); in series [1] it was 6.34 µg/mL (≈ 15.8 µM); in the series with MRSA USA 300 (BAA-1717), 0.63 µg/mL (≈ 1.57 µM); in [3] it was greater than 40 µg/mL; in the series on E. coli TolC(−) [5], 2.48 µM (≈ 0.998 µg/mL). The amount in solution in series [2] (solubility) came to 3.12 µM (≈ 1.26 µg/mL). The molecule further had a CC50 in series [4] of 59.9 µM.
Consider `Cc1cccc(Oc2ccc(C(=O)Nc3nnc(-c4ccc(F)cc4)o3)cc2)c1` [compound 4306], for which, in [2], the solubility is 6.25 µM (≈ 2.43 µg/mL). The molecule also came in with a CC50 in [4] greater than 100 µM. Moreover, the “Microsomal Stability + NADPH % degraded” value in series [7] is reported as less than 30%. Also, the MIC with E. coli TolC(−) [5] is 0.984 µM (≈ 0.383 µg/mL).
The like results for `COc1ccc(Oc2ccc(C(=O)Nc3nnc(-c4ccc(F)cc4)o3)cc2)cc1` [compound 4310] were, in that order, 6.25 µM (≈ 2.53 µg/mL), greater than 100 µM, less than 30% and 0.781 µM (≈ 0.317 µg/mL).
In the case of `O=C(Nc1nnc(-c2ccc(F)cc2)o1)N1Cc2ccccc2C1` [compound 4330], the MIC in the series with N. gonorrhoeae 49226 is 0.16 µg/mL (≈ 0.493 µM); in the series on MRSA-1094 (MDR), 2.03 µg/mL (≈ 6.26 µM); in [1], no less than 32 µg/mL; in the series on MRSA USA 300 (BAA-1717), 1.01 µg/mL (≈ 3.11 µM); in series [3] it was greater than 32 µg/mL; with E. coli TolC(−) [5], 6.25 µM (≈ 2.03 µg/mL). In series [2], the concentration in solution (solubility) was 3.13 µM (≈ 1.02 µg/mL). For the same molecule, in [4], the CC50 is greater than 100 µM. The “Microsomal Stability + NADPH % degraded” value in series [7] came out at 43.5%.
Take `CC1=C(Br)CN(C(=O)Nc2nnc(-c3ccc(F)cc3)o2)CC1` [compound 4923]: the “Fold Serum Shift vs. TolC(−)” value in the series with E. coli TolC(−) [6] came out at 18 fold. Besides, in the series “Mouse serum stability”, the “Serum Stability (% remain)” value is reported as greater than 95%. The MIC in the series with E. coli TolC(−) [5] was determined as 0.78 µM (≈ 0.297 µg/mL).
`O=C(Nc1nnc(-c2ccc(F)cc2)o1)N1CC(C(F)(F)F)C(C(F)(F)F)C1` (centres unmarked) [compound 4839]: the solubility in series [2] was determined as 6.25 µM (≈ 2.58 µg/mL). The “Fold Serum Shift vs. TolC(−)” value in the series with E. coli TolC(−) [6] came out at 12.5 fold. Moreover, the “Serum Stability (% remain)” value in “Mouse serum stability” was greater than 95%. For the same molecule, in the series with E. coli TolC(−) [5], the MIC came to 3.13 µM (≈ 1.29 µg/mL).
Consider `Cc1ccc(Oc2ccc(C(=O)Nc3nnc(-c4ccc(F)cc4)o3)cc2)cc1` [compound 4305], for which the concentration in solution in [2] (solubility) was 3.13 µM (≈ 1.22 µg/mL). Besides, in series [4], the 50% cytotoxic concentration (CC50) turned out to be 32 µM. In series [7], the “Microsomal Stability + NADPH % degraded” value was less than 30%. Besides, the MIC with E. coli TolC(−) [5] was 0.781 µM (≈ 0.304 µg/mL).
On to `O=C(Nc1nnc(-c2ccc(F)cc2)o1)N1CCc2ccc(F)cc2C1` [compound 4332], for which the MIC in the series with N. gonorrhoeae 49226 is 0.089 µg/mL (≈ 0.25 µM); in the series with MRSA-1094 (MDR), 5 µg/mL (≈ 14 µM); in [1] it was 7.07 µg/mL (≈ 19.8 µM); in series [3], greater than 35 µg/mL; in the series on E. coli TolC(−) [5], 3.12 µM (≈ 1.11 µg/mL). In addition, the concentration in solution in series [2] (solubility) came to 3.13 µM (≈ 1.12 µg/mL). The molecule also had a CC50 in [4] of 14.4 µM. For the same molecule, the “Microsomal Stability + NADPH % degraded” value in series [7] is on record as less than 30%.
Take `CC(C)(C)C1=CCN(C(=O)Nc2nnc(-c3ccc(F)cc3)o2)CC1` [compound 4841]: the “Fold Serum Shift vs. TolC(−)” value in the series on E. coli TolC(−) [6] is given as 8 fold. Besides, the MIC in the series on E. coli TolC(−) [5] was 6.25 µM (≈ 2.15 µg/mL).
